Measured values: US11098063B2, “Diazabicyclic substituted imidazopyrimidines and their use for the treatment of breathing disorders” (Bayer Aktiengesellschaft, priority 2017, dated 2021)
pIC50: −log10 of the molar value.

Tests used:
human TASK-3 = human TASK-3 (Homo sapiens (Human), UniProt Q9NPC2); experiment: Inhibition of recombinant TASK-3 in stably transfected CHO cells (voltage-sensitive dye, KCl depolarization); format: cell-based; conditions: depolarization by 40 mM potassium chloride
Experimental: (§1) B-2. Inhibition of Recombinant TASK-1 and TASK-3 In Vitro
(§2) The investigations on the inhibition of the recombinant TASK-1 and TASK-3 channels were conducted using stably transfected CHO cells. The compounds according to the invention were tested in this case by application of 40 mM potassium chloride in the presence of a voltage-sensitive dye according to the method described in detail in the following references [Whiteaker et al., Validation of FLIPR membrane potential dye for high-throughput screening of potassium channel modulators, J. Biomol. Screen. 6 (5), 305-312 (2001); Molecular Devices FLIPR Application Note: Measuring membrane potential using the FLIPR® membrane potential assay kit on Fluorometric Imaging Plate Reader (FLIPR®) systems, http://www.moleculardevices.com/reagents-supplies/assay-kits/ion-channels/flipr-membrane-potential-assay-kits]. The activity of the test substances was determined as their ability to inhibit a depolarization induced in the recombinant cells by 40 mM potassium chloride. The concentration which can block half of this depolarization is referred to as IC50.

human TASK-1 = human TASK-1 (Homo sapiens (Human), UniProt O14649); experiment: Inhibition of recombinant TASK-1 in stably transfected CHO cells (voltage-sensitive dye, KCl depolarization); format: cell-based; conditions: depolarization by 40 mM potassium chloride
human TASK-1, sequence (O14649 whole entry): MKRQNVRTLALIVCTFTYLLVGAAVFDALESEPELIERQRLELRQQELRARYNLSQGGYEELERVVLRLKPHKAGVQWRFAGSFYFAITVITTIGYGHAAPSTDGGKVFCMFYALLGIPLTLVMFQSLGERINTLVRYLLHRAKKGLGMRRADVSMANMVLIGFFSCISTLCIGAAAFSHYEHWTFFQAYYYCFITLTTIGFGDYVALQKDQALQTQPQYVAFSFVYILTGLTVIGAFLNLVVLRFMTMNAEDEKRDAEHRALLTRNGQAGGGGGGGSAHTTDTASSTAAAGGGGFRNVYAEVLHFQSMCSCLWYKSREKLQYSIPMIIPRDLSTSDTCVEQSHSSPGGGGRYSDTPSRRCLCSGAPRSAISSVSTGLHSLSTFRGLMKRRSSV
Experimental: as §1, §2

human TASK-3, sequence (Q9NPC2 whole entry): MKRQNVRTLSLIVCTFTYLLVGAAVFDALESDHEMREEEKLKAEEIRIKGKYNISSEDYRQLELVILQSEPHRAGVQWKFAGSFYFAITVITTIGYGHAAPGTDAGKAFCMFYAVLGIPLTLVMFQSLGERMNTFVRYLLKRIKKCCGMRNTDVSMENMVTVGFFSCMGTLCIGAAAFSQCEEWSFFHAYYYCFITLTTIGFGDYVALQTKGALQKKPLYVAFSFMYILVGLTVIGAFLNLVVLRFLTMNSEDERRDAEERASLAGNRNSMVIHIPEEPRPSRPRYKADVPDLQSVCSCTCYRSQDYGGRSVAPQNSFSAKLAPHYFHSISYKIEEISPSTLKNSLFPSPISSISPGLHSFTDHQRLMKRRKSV

SMILES | pIC50 (human TASK-3) | pIC50 (human TASK-1)
CSc1cccc(C(=O)N2C3CCC2CN(Cc2c(-c4ccc(Cl)cc4)nc4ncccn24)C3)n1 [Example 33] | 6.89 | 6.72
O=C(c1ccccc1F)N1C2COCC1CN(Cc1c(-c3ccc(Cl)cc3)nc3ncccn13)C2 [Example 30] | 7.07 | 5.46
O=C(Nc1cccc(F)c1)N1C2CCC1CN(Cc1c(-c3ccc(Cl)cc3)nc3ncccn13)C2 [Example 104, 3-{[2-(4-chlorophenyl)imidazo[1,2-a]pyrimidin-3-yl]methyl}-N-(3-fluorophenyl)-3,8-diazabicyclo[3.2.1]octane-8-carboxamide] | 6.34 | 4.72
COc1cccc(C(=O)N2CC3CCC2CN3Cc2c(-c3ccc(Cl)cc3)nc3ncccn23)n1 (centres unmarked) [Example 44] | 6.72 | 6.00
CC(C)(C)OC(=O)N1CC2CCC1CN2Cc1c(-c2ccc(Cl)cc2)nc2ncccn12 (single isomer, unassigned) [Example 4, tert-Butyl 5-{[2-(4-chlorophenyl)imidazo[1,2-a]pyrimidin-3-yl]methyl}-2,5-diazabicyclo[2.2.2]octane-2-carboxylate] | 7.01 | 6.33
COc1ccc(Cl)c(C(=O)N2C3COCC2CN(Cc2c(-c4ccc(C(C)C)cc4)nc4ncccn24)C3)n1 [Example 67] | 7.77 | 5.92
CC(C)c1nc(C(=O)N2C3CCC2CN(Cc2c(-c4ccc(Cl)cc4)nc4ncccn24)C3)cs1 [Example 54] | 7.89 | 6.07
CC(c1c(-c2ccc(Cl)cc2)nc2ncccn12)N1CC2CCC(C1)N2C(=O)OC(C)(C)C (racemic) [Example 10, tert-Butyl 3-{1-[2-(4-chlorophenyl)imidazo[1,2-a]pyrimidin-3-yl]ethyl}-3,8-diazabicyclo[3.2.1]octane-8-carboxylate] | 6.89 | 5.66
Cc1ccccc1CNC(=O)N1C2CCC1CN(Cc1c(-c3ccc(Cl)cc3)nc3ncccn13)C2 [Example 107, 3-{[2-(4-chlorophenyl)imidazo[1,2-a]pyrimidin-3-yl]methyl}-N-(2-methylbenzyl)-3,8-diazabicyclo[3.2.1]octane-8-carboxamide] | 6.12 | 4.52
COc1cccc(C(=O)N2CC3CCC2CN3Cc2c(-c3ccc(Cl)cc3)nc3ncccn23)c1 (centres unmarked) [Example 38] | 6.49 | 5.02
COc1cccc(C(=O)N2C3CCC2CN(Cc2c(-c4ccc(C(C)C)cc4)nc4ncccn24)C3)n1 [Example 63] | 7.82 | 5.77
Cc1sc(C(=O)N2C3CCC2CN(Cc2c(-c4ccc(Cl)cc4)nc4ncccn24)C3)nc1Br [Example 52] | 7.28 | 5.89
COc1cccc(C(=O)N2CC3CCC2CN3Cc2c(-c3ccc(C(C)C)cc3)nc3ncccn23)n1 (centres unmarked) [Example 74] | 7.21 | 5.47
O=C(Nc1ccc(SC(F)(F)F)cc1)N1C2CCC1CN(Cc1c(-c3ccc(Cl)cc3)nc3ncccn13)C2 [Example 103, 3-{[2-(4-chlorophenyl)imidazo[1,2-a]pyrimidin-3-yl]methyl}-N-{4-[(trifluoromethyl)sulfanyl]phenyl}-3,8-diazabicyclo[3.2.1]octane-8-carboxamide] | 6.16 | 4.52
O=C(c1coc(C2CC2)n1)N1C2CCC1CN(Cc1c(-c3ccc(Cl)cc3)nc3ncccn13)C2 [Example 47] | 6.96 | 5.55
O=C(c1ccccc1F)N1C2CCC1CN(Cc1c(-c3ccc(C4CC4)cc3)nc3ncccn13)C2 [Example 133, (3-{[2-(4-cyclopropylphenyl)imidazo[1,2-a]pyrimidin-3-yl]methyl}-3,8-diazabicyclo[3.2.1]octan-8-yl)(2-fluorophenyl)methanone] | 6.74 | 5.80
O=C(c1cccc(OC(F)F)n1)N1C2CCC1CN(Cc1c(-c3ccc(C4CC4)cc3)nc3ncccn13)C2 [Example 138, (3-{[2-(4-cyclopropylphenyl)imidazo[1,2-a]pyrimidin-3-yl]methyl}-3,8-diazabicyclo[3.2.1]octan-8-yl)[6-(difluoromethoxy)pyridin-2-yl]methanone] | 6.54 | 5.49
COc1ccc(C)c(C(=O)N2CC3CCC2CN3Cc2c(-c3ccc(C(C)C)cc3)nc3ncccn23)n1 (centres unmarked) [Example 78] | 7.62 | 5.42
COc1ccc(C)c(C(=O)N2CC3CCC2CN3Cc2c(-c3ccc(C(C)C)cc3)nc3ncccn23)n1 (centres unmarked) [Example 77] | 8.31 | 6.14

SMILES | pIC50 (human TASK-3) | pIC50 (human TASK-1)
CNc1cccc(C(=O)N2C3CCC2CN(Cc2c(-c4ccc(C(C)C)cc4)nc4ncccn24)C3)n1 [Example 62] | 7.15 | 5.16
COc1ccc(C)c(C(=O)N2CC3CCC2CN3Cc2c(-c3ccc(Cl)cc3)nc3ncccn23)n1 (single isomer, unassigned) [Example 25, (5-{[2-(4-Chlorophenyl)imidazo[1,2-a]pyrimidin-3-yl]methyl}-2,5-diazabicyclo[2.2.2]oct-2-yl)(6-methoxy-3-methylpyridin-2-yl)methanone] | 7.15 | 5.96
O=C(C1CCCC1)N1CC2CCC1CN2Cc1c(-c2ccc(Cl)cc2)nc2ncccn12 (centres unmarked) [Example 37] | 6.85 | 5.82
CCCOC(=O)N1C2CCC1CN(Cc1c(-c3ccc(Cl)cc3)nc3ncccn13)C2 [Example 126, propyl 3-{[2-(4-chlorophenyl)imidazo[1,2-a]pyrimidin-3-yl]methyl}-3,8-diazabicyclo[3.2.1]octane-8-carboxylate] | 7.85 | 6.55
CC(C)c1ccc(-c2nc3ncccn3c2CN2CC3CCC2CN3C(=O)OC(C)(C)C)cc1 (racemic) [Example 7, tert-Butyl 5-{[2-(4-isopropylphenyl)imidazo[1,2-a]pyrimidine-3-yl]methyl}-2,5-diazabicyclo[2.2.2]octane-2-carboxylate] | 6.24 | 5.07
O=C(NC1CCCCC1)N1C2CCC1CN(Cc1c(-c3ccc(Cl)cc3)nc3ncccn13)C2 [Example 100, 3-{[2-(4-Chlorophenyl)imidazo[1,2-a]pyrimidin-3-yl]methyl}-N-cyclohexyl-3,8-diazabicyclo[3.2.1]octane-8-carboxamide] | 6.20 | 4.72
O=C(c1csc(C(F)(F)F)n1)N1C2CCC1CN(Cc1c(-c3ccc(Cl)cc3)nc3ncccn13)C2 [Example 58] | 7.77 | 5.80
CSc1cccc(C(=O)N2C3COCC2CN(Cc2c(-c4ccc(Cl)cc4)nc4ncccn24)C3)n1 [Example 16, (7-{[2-(4-Chlorophenyl)imidazo[1,2-a]pyrimidin-3-yl]methyl}-3-oxa-7,9-diazabicyclo[3.3.1]non-9-yl)[6-(methylsulfanyl)pyridin-2-yl]methanone] | 7.92 | 6.17
CC(C)(C)OC(=O)N1C2COCC1CN(Cc1c(-c3ccc(Cl)cc3)nc3ncccn13)C2 [Example 1, tert-Butyl 7-{[2-(4-chlorophenyl)imidazo[1,2-a]pyrimidin-3-yl]methyl}-3-oxa-7,9-diazabicyclo[3.3.1]nonane-9-carboxylate] | 6.40 | 5.77
COC(=O)N1C2CCC1CN(Cc1c(-c3ccc(Cl)cc3)nc3ncccn13)C2 [Example 123, methyl 3-{[2-(4-chlorophenyl)imidazo[1,2-a]pyrimidin-3-yl]methyl}-3,8-diazabicyclo[3.2.1]octane-8-carboxylate] | 6.64 | 4.85
CCN(C(=O)N1C2CCC1CN(Cc1c(-c3ccc(Cl)cc3)nc3ncccn13)C2)c1ccccc1 [Example 114, 3-{[2-(4-chlorophenyl)imidazo[1,2-a]pyrimidin-3-yl]methyl}-N-ethyl-N-phenyl-3,8-diazabicyclo[3.2.1]octane-8-carboxamide] | 6.85 | 5.17
CC(C)c1ccc(-c2nc3ncccn3c2CN2CC3CCC2CN3C(=O)c2cccc(OC(F)F)n2)cc1 (centres unmarked) [Example 76] | 7.25 | 4.89
O=C(c1ccccc1F)N1C2CCC1CN(Cc1c(-c3ccc(Br)cc3)nc3ncccn13)C2 [Example 83] | 7.85 | 6.60
CC(C)c1ccc(-c2nc3ncccn3c2CN2CC3CCC(C2)N3C(=O)c2ccccc2F)cc1 [Example 64] | 8.08 | 5.96
CC(C)c1ccc(-c2nc3ncccn3c2CN2CC3CCC2CN3C(=O)c2cccc(OC(F)F)n2)cc1 (centres unmarked) [Example 75] | 7.29 | 5.42
O=C(Nc1c(Cl)cccc1Cl)N1C2CCC1CN(Cc1c(-c3ccc(Cl)cc3)nc3ncccn13)C2 [Example 91, 3-{[2-(4-chlorophenyl)imidazo[1,2-a]pyrimidin-3-yl]methyl}-N-(2,6-dichlorophenyl)-3,8-diazabicyclo[3.2.1]octane-8-carboxamide] | 6.39 | 4.70
CC(C)c1ccc(-c2nc3ncccn3c2CN2CC3COCC(C2)N3C(=O)c2ccccc2F)cc1 [Example 68] | 7.06 | 5.03
O=C(N1CCCCC1)N1C2CCC1CN(Cc1c(-c3ccc(Cl)cc3)nc3ncccn13)C2 [Example 116, (3-{[2-(4-chlorophenyl)imidazo[1,2-a]pyrimidin-3-yl]methyl}-3,8-diazabicyclo[3.2.1]oct-8-yl)(piperidin-1-yl)methanone] | 7.19 | 5.57
